Assay results: patent publication US20080138462A1, “Lactobacillus buchneri strain LN5665 and its use to improve aerobic stability of silage” (Pioneer Hi-Bred International, Inc., priority 2006, published 2008)

Test: Aerobic stability of grass silage (PVC silos, method of Honig)
Set-up: species or system ryegrass
Protocol: Second cut ryegrass was harvested at PLNC. The grass was determined to have an approximate dry matter of 35%.
Inoculation: Individual strains were supplied as fresh grown overnight culture. Cultures were adjusted to a standard concentration of 5.0×10^7 CFU/mL and applied using a syringe at a rate of 2.2 mL/kg of forage. The application rate for all strains was 1.1×10^5 CFU/g forage. Propionic acid (88%) was applied at a rate of 4.4 mL/kg fresh forage.
PVC Silos: PVC silos were filled at a packing density of 0.288 kg DM/silo (100 kg DM/m^3); approximately 0.82-0.95 kg/silo. Silos were air infused for 24 hours on days 28 and 42, and opened after 50-60 days of ensiling.
Aerobic Stability: The method of Honig (Proc. Of the Eurobac. Conf., P. Lingvall and S. Lindgren (ed.) (12-16 Aug. 1986) Swed. Univ. of Agric. Sci. Grass and Forage Report No. 3-1990. Pp. 76-81. Uppsala, Sweden.) was used for measuring aerobic stability (see Table 1). ROT is defined as the time, in hours, for the silage to heat 1.7° C. after exposure to air. Cumm_DD is the integral value of the area between the time ROT is attained and the end of the experiment. Aerobic dry matter loss (% dry matter) was determined relating the increase in temperature and the time to energy losses occurring in the silage.

## CCC(=O)O [Propionic Acid, Propionic acid]
  Aerobic deterioration compared with control grass silages: significantly less aerobic deterioration
